Experimental data taken from publication PMC6982535 (Science (New York, N.Y.), 2019).

Target: T1, TREK-2 (Homo sapiens, UniProt P57789)
T1 sequence (P57789 1-538): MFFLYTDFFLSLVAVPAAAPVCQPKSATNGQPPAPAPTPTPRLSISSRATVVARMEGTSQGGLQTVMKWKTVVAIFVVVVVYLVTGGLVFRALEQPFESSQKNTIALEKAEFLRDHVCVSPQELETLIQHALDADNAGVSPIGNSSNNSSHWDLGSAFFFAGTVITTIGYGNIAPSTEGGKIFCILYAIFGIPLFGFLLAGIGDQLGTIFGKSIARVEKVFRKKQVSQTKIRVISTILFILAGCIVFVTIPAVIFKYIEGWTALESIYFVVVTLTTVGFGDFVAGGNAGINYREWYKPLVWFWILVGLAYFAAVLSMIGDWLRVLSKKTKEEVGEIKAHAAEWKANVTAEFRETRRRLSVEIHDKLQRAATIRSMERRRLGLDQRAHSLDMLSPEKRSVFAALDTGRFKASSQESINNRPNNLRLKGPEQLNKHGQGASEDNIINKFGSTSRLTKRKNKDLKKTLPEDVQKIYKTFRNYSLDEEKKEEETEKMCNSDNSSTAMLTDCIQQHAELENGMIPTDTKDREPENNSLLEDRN
Test: Single channel recordings of TREK-2 expressed in HEK293 cells
Type: cell-based
Conditions: TREK-2 in HEK293 cells

c1ccc(-c2nn[nH]n2)c(Nc2cccc3c2CCCC3)c1 [BL-1249] was tested, and the “single channel amplitude, outward” value (+100 mV, with BL-1249 (basal 17.7 ± 1.3), n = 7) was 21.7 ± 1.4 pA, the “single channel amplitude, inward” value (-100 mV, with BL-1249 (basal -29.3 ± 1.5), n = 7) was -34.1 ± 1.9 pA and the open probability (result in words) was “increase in open probability”.
